Earlier results, collected in US20110150946A1 (priority 2008, published 2011).

Conditions: sublingual apomorphine 4 mg per patient

In the case of `CN1CCc2cccc3c2[C@H]1Cc1ccc(O)c(O)c1-3` [apomorphine, 5,6,6a,7-tetrahydro-6-methyl-4H-dibenzo[de, g]quinoline-10,11-diol], the nausea incidence is given as 14.1%.
